Assay: ABTS radical scavenging activity
Assay type: biochemical
Conditions: ABTS assay
Experimental: The ability of the nanocarriers to scavenge the free radical ABTS was used to measure their antioxidant activity. To create an ABTS free radical, a stock solution of 7 mM ABTS was combined with 2.45 mM potassium persulfate and agitated in the dark for 12 h. […] Then, a standard solution (ascorbic acid) was mixed with the ABTS+ solution and incubated for 10 min in a 37 °C water bath. After that, various concentrations (10–100 µg/mL) of all samples were prepared in ethanol, 3 mL of the solution and 1 mL of the samples were combined, and the absorbance was measured at 734 nm using a UV spectrophotometer after 6 min [66]. Finally, the following equation was used to compute ABTS scavenging activity: Scavenging (%)=(Absorbance blank−Absorbance sample)/Absorbance blank×100

| SMILES | Antioxidant activity (ABTS scavenging) |
| --- | --- |
| O=C1O[C@H]([C@@H](O)CO)C(O)=C1O [standard solution, ascorbic acid] | 91.14 ± 0.24% |
| CCCCC[C@H](O)CC(=O)CCc1ccc(O)c(OC)c1 [Formulation 6-G, 6-gingerol] | 67.01 ± 1.11% |
